Values quoted from earlier work, collected in patent US8202840B2, “Enhanced ocular neuroprotection and neurostimulation” (Minu L.L.C., priority 2005, dated 2012).

Key:
[1] = test system: Ganglion cells in the retina (RGC); conditions: systemically administered
[2] = biological target: immunophilin FK 506-binding protein (FKBP) (Homo sapiens, UniProt P62942); conditions: in vitro
[3] = administered systemically

Chain of immunophilin FK 506-binding protein (FKBP) (P62942 whole entry): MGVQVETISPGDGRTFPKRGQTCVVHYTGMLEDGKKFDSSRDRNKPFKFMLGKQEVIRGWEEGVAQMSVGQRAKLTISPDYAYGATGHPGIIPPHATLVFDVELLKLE

For C=CC[C@@H]1/C=C(\C)C[C@H](C)C[C@H](OC)[C@H]2O[C@@](O)(C(=O)C(=O)N3CCCC[C@H]3C(=O)O[C@H](/C(C)=C/[C@@H]3CC[C@@H](O)[C@H](OC)C3)[C@H](C)[C@@H](O)CC1=O)[C@H](C)C[C@@H]2OC [tacrolimus, Tacrolimus], the “neuroprotection on RGC” value [1] is listed as “conferred neuroprotection on RGC”, the “binding to and inhibition of FKBP activity” value [2] is listed as “binds to and inhibits the activity” and the “renal and hepatic toxicity” value [3] is listed as “significant renal and hepatic toxicity”. For the same compound, the solubility in chloroform (chloroform) was “very soluble”, the solubility in ethanol (ethanol) was “freely soluble” and the solubility in methanol (methanol) was “very soluble”. For the same compound, the solubility in water (water) was “practically insoluble”.
